Experimental data reported in patent publication US6825178B1, “Methods and products for treating pseudomonas infection” (The Brigham and Women's Hospital, Inc., priority 1996, dated 2004).
Marks after values point to notes of the source that are not given here.

Assays:
[1] = test system: transformed human airway epithelial cells (CFT1-LCFSN line); test: Inhibition of internalization of P. aeruginosa strain 324 into CFT1-LCFSN cells (bacterial ingestion assay); type: cell-based; settings: strain 324, CFT1-LCFSN cells
Description: Cell lines. CFT1-LCFSN cells, carrying a retrovirally introduced chromosomal copy of the wild-type human CFTR gene were kindly provided by J. Olsen, J. Yankaskis and L. Johnson from The University of North Carolina, Chapel Hill, N.C.. The cell line parental to CFT1-LCFSN is designated CFT1; it is a line of human papilloma virus 18 E6/E7 transformed bronchial epithelial cells derived from a CF patient homozygous for ΔF508 CFTR. The CFT1-LCFSN cells have normal chloride ion conductance. CFT1-ΔF508 cells are derived from CFT1 cells and carry a cDNA introduced by a retrovirus vector that encodes the ΔF508 mutant form of CFTR. Cells were grown in supplemented F-12 medium as described in 5% CO2 at 37° C.
Bacterial strains. P. aeruginosa strains used include PAO1, a well-characterized laboratory strain, and strains 149 and 324, non-mucoid, LPS-smooth clinical isolates of P. aeruginosa from CF patients early in the course of infection. Fresh cultures of P. aeruginosa grown overnight at 37° C. on a tryptic soy agar plate were suspended in supplemented medium to prepare the bacterial inoculum. Approximately 10^6 cfu of the bacterial inoculum were added per well of 10^5, epithelial cells.
Reagents for inhibition of ingestion assays. Membranes were prepared from C127 cells as described by O'Riordan et al.. Membranes were suspended in 150 mM NaCl, 50 mM Tris, pH 7.5 and 1 mM EDTA and added at the indicated concentration to suspensions of P. aeruginosa strains prior to adding this mixture to CFT1-LCFSN cells to measure bacterial uptake. Membranes from CEM/VbI cells expressing P-glycoprotein and membranes from control CEM cells lacking P-glycoprotein were obtained from James Croop of Harvard Medical School. Purified (˜85%) recombinant CFTR was obtained from Genzyme Corp., and prepared as described. The protein was solubilized in 100 mM NaCl, 10 mM Tris, pH 8.0, 2 mM di-thio-threitol and 0.1% sodium dodecyl sulfate. Monoclonal antibodies raised to synthetic peptides corresponding to the first (MAb CF3) and fourth (MAb CF4) predicted extracellular domains of CFTR, as well as a MAb specific to a peptide representing the carboxy-terminal 14 amino acids of mature CFTR (MAb CF2) were provided by Dr. George Banting, University of Bristol, Bristol, UK [12]. Synthetic peptides were obtained from Chiron Mimetopes, San Diego, Calif. Peptide GRIIASYDPDNKEER (15 amino acids) (SEQ.ID.NO. 3) represents amino acids 103-117 of mature CFTR, peptide […] (31 amino acids) (SEQ.ID.NO. 4) represents amino acids 881-911 of mature CFTR. Peptides were made up as a stock solution in F-12 medium containing 1 μM/μl based on the purity reported by the manufacturer. Peptides were diluted in F-12 tissue culture medium prior to use in assays.
Bacterial ingestion assay. Cells were released from monolayers in tissue culture flasks by 5 min. of incubation with trypsin-versene mixture (BioWhitaker, Walkersville, Md.), washed, counted and seeded into 96-well tissue culture plates at 10^5 cells/well in supplemented F-12 medium and incubated at 37° C. in 5% CO2. Fresh cultures of P. aeruginosa grown overnight at 37° C. on a tryptic soy agar plate were suspended in supplemented F-12 medium to prepare the bacterial inoculum. Then 10^6 colony forming units (cfu) of the bacterial inoculum were added per well of 10^5 epithelial cells. Bacteria were allowed to invade the epithelial cells for 3 to 4 hours at 37° C., after which nonadherent bacteria were removed by washing. The remaining steps of the assay and the steps involved in the controls have previously been described. Three to 9 replicates were obtained per point, and analyzed using analysis of variance (ANOVA) and the Fisher PLSD statistic to determine pairwise differences. […]

[2] = test system: P. aeruginosa strain PAO1; test: Neonatal mouse model of infection, CFTR peptide added to bacterial inoculum; type: in vivo; settings: 7-day old mice, 10 nM peptide added to PAO1 inoculum, intranasal, 24 hours after infection; for Median cfu (10th-90th percentile cfu) P. aeruginosa internalized per mg. lung tissue: gentamicin-exclusion
Description: Neonatal mouse model of infection. Seven-day old neonatal Balb/c mice were infected with ˜10^8 cfu of stain PAO1 delivered intranasally as described, with the addition of 10 nM of a synthetic peptide corresponding to either the first or fourth extracellular domains of CFTR to the bacterial inoculum. Twenty-four hours later 7 animals were killed, right and left lungs removed, weighed and dispersed into single cell suspensions by grinding through a fine-mesh wire screen. An aliquot was removed, Triton X-100 added to a final concentration of 0.5% to release intracellular bacteria and the total cfu of bacteria present in each lung determined. The remaining portion of the lung cell suspension was treated with 300 μg gentamicin/ml for 60 minutes to kill extracellular P. aeruginosa. The cells were then pelleted in a centrifuge (400×g, 10 minutes), washed twice in RPMI medium, and resuspended in 200 μl of 0.5% Triton X-100 to release intracellular bacteria that survived the gentamicin treatment. These suspensions were diluted and plated for bacterial enumeration. The cfu per milligram lung weight was calculated and differences among groups analyzed by nonparametric statistics (Mann-Whitney U test) due to outliers in some groups.
To confirm that binding and internalization of P. aeruginosa by the first predicted extracellular domain of CFTR is important in resistance to lung infection, 7-day old Balb/c mice were nasally inoculated with 10^8 cfu of P. aeruginosa stain PAO1 mixed with either 10 nM of the peptide corresponding to the first or fourth predicted extracellular domains of CFTR and the course of bacterial infection was followed for over 24 hours. […] Thus, inhibiting P. aeruginosa internalization by blocking the bacterial interaction with CFTR in the lung leads to increased bacterial counts in this tissue, indicating an important mechanism for clearance of P. aeruginosa from the lung following inhalation of these organisms.

[3] = listed as Fourth extracellular domain
[4] = listed as First extracellular domain
[5] = listed as first extracellular domain peptide

| Sequence | Mean cfu of P. aeruginosa internalized (standard deviation) ([1]; 0.001 nanomoles peptide) | Mean cfu of P. aeruginosa internalized (standard deviation) ([1]; 0.01 nanomoles peptide) | Mean cfu of P. aeruginosa internalized (standard deviation) ([1]; 0.1 nanomoles peptide) | Mean cfu of P. aeruginosa internalized (standard deviation) ([1]; 1 nanomoles peptide) | Median cfu (10th-90th percentile cfu) P. aeruginosa internalized per mg. lung tissue [2, 3] | Median cfu (10th-90th percentile cfu) P. aeruginosa internalized per mg. lung tissue ([2]; listed as fourth extracellular domain peptide) | Median cfu (10th-90th percentile cfu) P. aeruginosa total per mg. lung tissue [2, 3] | Median cfu (10th-90th percentile cfu) P. aeruginosa total per mg. lung tissue ([2]; listed as fourth predicted extracellular domain) | Median cfu (10th-90th percentile cfu) P. aeruginosa internalized per mg. lung tissue [2, 4] | Median cfu (10th-90th percentile cfu) P. aeruginosa internalized per mg. lung tissue [2, 5] | Median cfu (10th-90th percentile cfu) P. aeruginosa total per mg. lung tissue [2, 4] | Median cfu (10th-90th percentile cfu) P. aeruginosa total per mg. lung tissue [2, 5] |
| --- | --- | --- | --- | --- | --- | --- | --- | --- | --- | --- | --- | --- |
| LWLLGNTPLQDKGNSTHSRNNSYAVIITSTS (listed as Homo Sapiens) [Fourth domain, reference compound] | 1.3275 × 10^5 (9.408 × 10^3) cfu | 1.412 × 10^5 (7.1986 × 10^3) cfu | 1.416 × 10^5 (1.195 × 10^4) cfu | 1.42 × 10^5 (1.746 × 10^4) cfu | 13,246 (3,578-49,558) cfu per mg lung tissue | > 10^4 cfu per mg lung tissue | 20,450 (4,000-61,008) cfu per mg lung tissue | ~2×10^4 cfu per mg lung tissue | – | – | – | – |
| GRIIASYDPDNKEER (listed as Homo Sapiens) [First domain] | 1.3938 × 10^5 (7.6735 × 10^3) cfu | 1.405 × 10^5 (9.4323 × 10^3) cfu | 7.232 × 10^4 (5.6982 × 10^3)^a cfu | 1.462 × 10^4 (2.6955 × 10^3)^a cfu | – | – | – | – | 0 (0-278) cfu per mg lung tissue | virtually no internalized P. aeruginosa | 152,419 (37,860-519,612) cfu per mg lung tissue | ~1.5×10^5 cfu per mg lung tissue |
